Converted amounts (≈) assume the structure as drawn. Like-named read-outs stand apart in the source and are kept apart here.
Tests used:
[1] = tested on: Murine leukemia L1210 cells; test: In vitro growth inhibition of L1210 cells (MTT, 72 hr); format: cell-based; settings: Mus musculus, read-out: L1210 IC50
Description: (§1) The reagents for tissue culture were purchased from GIBCO (Grand Island, N.Y.). 5-Dimethylthiazol-2-yl)-2,5-diphenyl tetrazolium bromide (MTT) was purchased from Sigma Chemical Company (St. Louis, Mo.). All agents were prepared as 2 mg/ml stock solutions in DMSO. MTT was prepared as a 1 mg/ml stock solution in Dulbecco's phosphate buffered saline (PBS). All stocks were stored frozen in the dark at -20° C.
(§2) Clone A human colon cancer cells were isolated from the heterogeneous DLD-1 colon tumor line and maintained as previously described (Dexter, D. L.; Barbosa, J. A.; Calabresi, P. Cancer Research 1979, 39, 1020; Dexter, D. L.; Spremulli, E. M.; Fligiel, A.; Barbosa, J. A.; Vogel, R.; Van Vorhees, A.; Calabresi, P. Am. J. Med. 1981, 71, 949.). Murine leukemia L1210 cells were maintained in RPMI-L medium as described (Chen, S.-F.; Ruben, R. L.; Dexter, D. L. Cancer Research 1986, 46, 5014.). All cell lines were incubated at 37° C. in a humidified atmosphere of 5% CO2 -95% air.
(§3) Exponentially growing L1210 cells (1×10^3), or Clone A cells (8×10^2) in 0.1 ml medium were seeded in a 96-well microtiter plate on day 0. On day one, 0.1 ml aliquots of medium containing graded concentrations of test compounds were added to the cell plates. After incubation at 37° C. in a humidified incubator for 72 hr, the plates containing L1210 cells were centrifuged briefly and 100 μl of the growth medium was removed. Cell cultures were incubated with 50 μl of MTT for 4 h at 37° C. (12). The resulting purple formazan precipitate was solubilized with 200 μl of 0.04 N HCl in isopropyl alcohol. Absorbance was read in a Titertek Multiskan MCC scanning well spectrophotometer (Flow Laboratories) at a test wavelength of 570 nm and a reference wavelength of 630 nm. The absorbances were stored on a floppy disk on an IBM-XT and uploaded onto a VAX computer. IC50 values were determined by a computer program that fit the data to the following equation:
(§4) Y=((Am -Ao)/(1+(X/IC50)^n))+Ao
(§5) where Am =absorbance of the control cells; Ao =absorbance of the cells in the presence of highest compound concentration; Y=observed absorbance; X=compound concentration; IC50 =dose of compound that inhibits the number of population doublings of cells to one half that of the number of population doublings of the control cells; and n equals the slope of the straight portion of the curve.
(§6) The values reported in the table are from at least one experiment performed in eight replicates. If more than one experiment was performed, the number reported is the average of all the trials

[2] = tested on: Clone A human colon cancer cells; test: In vitro growth inhibition of Clone A cells (MTT, 72 hr); format: cell-based; settings: read-out: Clone A IC50
Description: as §1, §2, §3, §4, §5, §6

SMILES | IC50 ([1]; L1210, 72 h) [µg/mL] | IC50 ([2]; 72 h) [µg/mL] | IC50 ([1]; L1210 cells, 72 hr, MTT) [µg/mL] | IC50 ([2]; Clone A cells, 72 hr, MTT) [µg/mL]
CS(=O)(=O)O.O=C1c2cccc3c2c(cc2cc([N+](=O)[O-])cnc23)C(=O)N1CCCCNCCCN1C(=O)c2cccc3c2c(cc2cc([N+](=O)[O-])cnc23)C1=O [Example 11, 4-[3-(7-Nitro-5-azaphenanthrene-1,10dicarboximido)propylamino]-1-(7-nitro-5-azaphenanthrene-1, 10-dicarboximido)butane Hydromethanesulfonate] | 0.171 | 0.543 |  | 
O=C1c2cc([N+](=O)[O-])cc3c2c(cc2cnccc23)C(=O)N1CCCCNCCCN1C(=O)c2cc([N+](=O)[O-])cc3c2c(cc2cnccc23)C1=O [Example 16, 4-[3-(3-Nitro-7-azaphenanthrene-1,10-dicarboximido)propylamino]-1-(3-nitro-7-azaphenanthrene-1, 10-dicarboximido)butane 2.6-Hydromethanesulfonate] | < 0.01 | 0.002 (≈ 0.00287 µM) |  | 
CS(=O)(=O)O.N#Cc1ccc2cc3c4c(cccc4c2c1)C(=O)N(CCCCNCCCN1C(=O)c2cccc4c2c(cc2ccc(C#N)cc24)C1=O)C3=O [Example 49, 4-[3-(6-Cyanophenanthrene-1,10-dicarboximido)propylamino]-1-(6-cyanophenanthrene-1, 10-dicarboximido)butane Hydromethanesulfonate] | 0.026 | 0.007 |  | 
C[C@H](CNCCNC[C@@H](C)N1C(=O)c2cccc3c2c(cc2ccc(C(F)(F)F)cc23)C1=O)N1C(=O)c2cccc3cc([N+](=O)[O-])cc(c23)C1=O [Example 121] | 0.397 (≈ 0.569 µM) | 0.032 (≈ 0.0459 µM) |  | 
COc1ccc2cc3c4c(cccc4c2c1)C(=O)N([C@H](C)CNCCNC[C@@H](C)N1C(=O)c2cccc4cc([N+](=O)[O-])cc(c24)C1=O)C3=O [Example 122] | 0.211 (≈ 0.32 µM) | 0.023 (≈ 0.0349 µM) |  | 
CS(=O)(=O)O.CS(=O)(=O)O.C[C@H](CNCCNC[C@@H](C)N1C(=O)c2cc([N+](=O)[O-])cc3c2c(cc2ncccc23)C1=O)N1C(=O)c2cccc3cc([N+](=O)[O-])cc(c23)C1=O [Example 116, (R,R)-1-[2-(3-Nitro-8-azaphenanthrene-1,10-dicarboximido)propylamino]-2-[2-(3-nitronaphthalene-1,8-dicarboximido)propylamino]ethane Dihydromethanesulfonate] | 0.012 | 0.003 |  | 
CS(=O)(=O)O.CS(=O)(=O)O.C[C@H](CNCCNC[C@@H](C)N1C(=O)c2cccc3c2c(cc2cnccc23)C1=O)N1C(=O)c2cccc3cc([N+](=O)[O-])cc(c23)C1=O [Example 113, (R,R)-1-[2-(7-Azaphenanthrene-1,10-dicarboximido)propylamino]-2-[2-(3-nitronaphthalene-1,8-dicarboximido)propylamino]ethane Dihydromethanesulfonate] |  |  | 0.008 | 0.0003
CS(=O)(=O)O.CS(=O)(=O)O.Cc1nc2cc3c4c(cccc4c2s1)C(=O)N([C@H](C)CNCCNC[C@@H](C)N1C(=O)c2cccc4c2c(cc2nc(C)sc24)C1=O)C3=O [Example 83, (R,R) -1,2-bis-[2-(2-Methylnaphtho[2,1-d]thiazole-5,6-dicarboximido)propylamino]ethane Dihydromethanesulfonate] |  |  | < 0.01 | 0.004
C[C@H](CNCCNC[C@@H](C)N1C(=O)c2cc([N+](=O)[O-])cc3c2c(cc2ccncc23)C1=O)N1C(=O)c2cccc3cc([N+](=O)[O-])cc(c23)C1=O [Example 119, (R,R)-1-[3-Nitro-6-azaphenanthrene-1, 10-dicarboximido)propylamino]-2-[2-(3-nitronaphthalene-1,8-dicarboximido)propylamino]ethane Dihydromethanesulfonate] | 0.044 | 0.003 |  | 
O=C1c2cccc3c2c(c(-c2ccccc2)c2ccccc23)C(=O)N1CCCCNCCCN1C(=O)c2cccc3c2c(c(-c2ccccc2)c2ccccc23)C1=O [Example 48, 4-[3-(9-Phenylphenanthrene-1,10-dicarboximido)propylamino]-1-(9-phenylphenanthrene-1, 10-docarboximido)butane Hydromethanesulfonate] | 0.773 | 1.46 |  | 
CS(=O)(=O)O.CS(=O)(=O)O.CS(=O)(=O)O.Nc1cc2c3c(cc4ccccc4c3c1)C(=O)N(CCCCNCCCN1C(=O)c3cc(N)cc4c3c(cc3ccccc34)C1=O)C2=O [Example 53, 4-[3-(3-Aminophenanthrene-1,10-dicarboximido)propylamino]-1-(3-aminophenanthrene-1,10-dicarboximido)butane Trihydromethanesulfonate] | 0.453 | 0.755 |  | 
CS(=O)(=O)O.Cc1ccc2cc3c4c(cccc4c2c1)C(=O)N(CCCCNCCCN1C(=O)c2cccc4c2c(cc2ccc(C)cc24)C1=O)C3=O [Example 41, 4-[3-(6-Methylphenanthrene-1,10-dicarboximido)propylamino]-1-(6-methylphenanthrene-1, 10-dicarboximido)butane Hydromethanesulfonate] | 0.317 | 0.804 |  | 
COc1ccc2c(c1)cc1c3c(cccc32)C(=O)N(CCCCNCCCN2C(=O)c3cccc4c3c(cc3cc(OC)ccc34)C2=O)C1=O.CS(=O)(=O)O [Example 54, 4-[3-(7-Methoxyphenanthrene-1,10-dicarboximido)propylamino]-1-(7-methoxyphenanthrene-1,10-dicarboximido)butane Hydromethanesulfonate] | 0.198 | 0.615 |  | 
CS(=O)(=O)O.CS(=O)(=O)O.C[C@H](CNCCNC[C@@H](C)N1C(=O)c2cccc3c2c(cc2cccnc23)C1=O)N1C(=O)c2cccc3cc([N+](=O)[O-])cc(c23)C1=O [Example 110, (R,R)-1-[2-(5-Azaphenanthrene-1,10-dicarboximido)propylamino]-2-[2-(3-nitronaphthalene-1,8-dicarboximido)propylamino]ethane Dihydromethanesulfonate] |  |  | 0.183 | 0.006
CS(=O)(=O)O.O=C1c2cccc3c2c(cc2cccc([N+](=O)[O-])c23)C(=O)N1CCCCNCCCN1C(=O)c2cccc3c2c(cc2cccc([N+](=O)[O-])c23)C1=O [Example 51, 4-[3-(5-Nitrophenanthrene-1,10-dicarboximido)propylamino]-1-(5-nitrophenanthrene-1, 10-dicarboximido)butane Hydromethanesulfonate] | 0.205 | 0.747 |  | 
CS(=O)(=O)O.O=C1c2cc([N+](=O)[O-])cc3c2c(cc2ccccc23)C(=O)N1CCCCNCCCN1C(=O)c2cc([N+](=O)[O-])cc3c2c(cc2ccccc23)C1=O [Example 50, 4-[3-(3-Nitrophenanthrene-1,10-dicarboximido)propylamino]-1-(3-nitrophenanthrene-1, 10-dicarboximido)butane Hydromethanesulfonate] | 0.126 | 0.032 |  | 
CS(=O)(=O)O.O=C1c2cccc3c2c(c(C(F)(F)F)c2ccccc23)C(=O)N1CCCCNCCCN1C(=O)c2cccc3c2c(c(C(F)(F)F)c2ccccc23)C1=O [Example 45, 4-(3-[9-(Trifluoromethyl)phenanthrene-1,10-dicarboximido]propylamino)-1-[9-(trifluoromethyl)phenanthrene-1,10-dicarboximido]butane Hydromethanesulfonate] | 0.3 | 1.05 |  | 
CS(=O)(=O)O.CS(=O)(=O)O.C[C@H](CNCCNC[C@@H](C)N1C(=O)c2cccc3c4c(cc(c23)C1=O)C(=O)c1ccccc1C4=O)N1C(=O)c2cccc3c4c(cc(c23)C1=O)C(=O)c1ccccc1C4=O [Example 101, (R,R)-1,2-bis-[2-(7,12-Dihydro-7,12-dioxobenz[a]anthracene-4,5-dicarboximido)propylamino]ethane Dihydromethanesulfonate] |  |  | 0.105 | 0.05
CS(=O)(=O)O.O=C1c2cccc3c2c(cc2occc23)C(=O)N1CCCCNCCCN1C(=O)c2cccc3c2c(cc2occc23)C1=O [Example 90, 4-[3-(Naphtho[2,1-b]furan-5,6-dicarboximido)propylamino]-1-(naphtho[2,1-b]furan-5,6-dicarboximido)butane Hydromethanesulfonate] |  |  | 0.013 | 0.017

From patent publication US5585382A, “Polycyclic and heterocyclic chromophores for bis-imide tumoricidals” (The DuPont Merck Pharmaceutical Company, priority 1995, dated 1996)
